Test results: PMC6936217 (Science translational medicine, 2019)
Where two headings read alike, the source gives them in different places.

Key:
EBNA1 = EBNA1 (Epstein-Barr virus, UniProt P03211); assay: ALPHA proximity DNA binding assay
15N-labeled EBNA1 = 15N-labeled EBNA1 (Epstein-Barr virus, UniProt P03211); assay: HSQC NMR with 15N-labeled EBNA1; type: binding; conditions: 50 μM ligand
[1] = read-out: IC50, inhibition of EBNA1 DNA binding, ALPHA proximity assay

Chain of EBNA1 (P03211 459-607): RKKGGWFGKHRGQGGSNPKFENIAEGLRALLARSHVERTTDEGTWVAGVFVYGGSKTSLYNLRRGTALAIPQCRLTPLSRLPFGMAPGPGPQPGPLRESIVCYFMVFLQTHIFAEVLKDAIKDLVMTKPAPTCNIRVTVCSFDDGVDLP
Chain of 15N-labeled EBNA1 (P03211 459-607): as above

## O=C(O)c1cncc(C#Cc2ccccc2)c1 [VK-0044, 5-phenylacetylenyl nicotinic acid]
EBNA1
  IC50: 110000 nM

## O=C(O)c1ccccc1-n1cccc1 [VK-0064, 2-pyrrolo-benzoic acid]
EBNA1; [1]
  IC50: 2000 nM

## O=C(O)c1cccc(C#Cc2ccccc2)c1-n1cccc1 [VK-0497, 2-pyrrolo-3-phenylacetylenyl benzoic acid]
EBNA1; [1]
  IC50: 890 nM
15N-labeled EBNA1
  binding to EBNA1 by chemical shift changes: direct binding
